In PubChem BioAssay (NCI):
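Tested at 5 concentrations; 48 h exposure; 96-well plates; endpoints linearly interpolated, else capped at highest concentration. GI50 is the concentration that inhibits growth by half. Definition used: TGI = concentration required for complete inhibition of growth.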

Key:
Assay in all cases: NCI-60 cell line screen, 48 h
[1] = tested on: HCC-2998 colon
[2] = tested on: RPMI-8226 leukemia
[3] = tested on: NCI-H522 lung
[4] = tested on: SF-268 CNS
[5] = tested on: HS 578T breast
[6] = tested on: HOP-62 NSCLC
[7] = tested on: SF-295 CNS
[8] = tested on: SW-620 colon
[9] = tested on: SK-MEL-2 melanoma
[10] = tested on: RXF 393 renal
[11] = tested on: SN12C renal
[12] = tested on: OVCAR-4 ovarian
[13] = tested on: SF-539 CNS
[14] = tested on: EKVX NSCLC
[15] = tested on: OVCAR-3 ovarian
[16] = tested on: MCF7 breast
[17] = tested on: BT-549 breast
[18] = tested on: A549 NSCLC
[19] = tested on: IGROV1 ovarian
[20] = tested on: NCI-H460 lung
[21] = tested on: MDA-MB-435
[22] = tested on: SNB-19 CNS
[23] = tested on: LOX IMVI melanoma
[24] = tested on: OVCAR-8 ovarian
[25] = tested on: SR leukemia
[26] = tested on: MALME-3M melanoma
[27] = tested on: SK-MEL-5 melanoma
[28] = tested on: TK-10 renal
[29] = tested on: PC-3 prostate
[30] = tested on: 786-0 renal
[31] = tested on: ACHN renal
[32] = tested on: CCRF-CEM leukemia
[33] = tested on: UACC-257 melanoma
[34] = tested on: NCI/ADR-RES ovarian
[35] = tested on: CAKI-1 renal
[36] = tested on: UO-31 renal
[37] = tested on: NCI-H23 lung
[38] = tested on: U251 CNS
[39] = tested on: SNB-75 CNS
[40] = tested on: COLO 205 colon
[41] = tested on: K-562 leukemia
[42] = tested on: UACC-62 melanoma
[43] = tested on: HCT-15 colon
[44] = tested on: HOP-92 NSCLC
[45] = tested on: NCI-H226 lung
[46] = tested on: DU-145 prostate
[47] = tested on: KM12 colon
[48] = tested on: MDA-MB-231 breast
[49] = tested on: OVCAR-5 ovarian
[50] = tested on: HL-60(TB) leukemia
[51] = tested on: M14 melanoma
[52] = tested on: HCT-116 colon
[53] = tested on: MOLT-4 leukemia
[54] = tested on: A498 renal
[55] = tested on: HT29 colon
[56] = tested on: T-47D breast
[57] = tested on: SK-MEL-28 melanoma
[58] = tested on: SK-OV-3 ovarian

With CC(=O)Oc1c(-c2ccccc2)oc2ccccc12 the TGI [1] was 2.8 µM, the TGI [2] was 2.67 µM and the TGI [3] was 5 µM. The TGI [4] was 6.3 µM, the TGI [5] was 6.38 µM and the TGI [6] was 6 µM. It also gave a TGI [7] of 2.58 µM, a TGI [8] of 11.8 µM and a TGI [9] of 4.35 µM. The TGI [10] was 3.59 µM, the TGI [11] was 4.68 µM and the TGI [12] was 9.85 µM. The TGI [13] was 2.86 µM, the TGI [14] was 3.99 µM and the TGI [15] was 6.02 µM. For the same compound, the TGI [16] was 4.3 µM, the TGI [17] was 7.05 µM and the TGI [18] was 3.33 µM. It also gave a TGI [19] of 6.56 µM, a TGI [20] of 2.44 µM and a TGI [21] of 6.95 µM. It also gave a TGI [22] of 11.6 µM, a TGI [23] of 1.41 µM and a TGI [24] of 12.5 µM. The TGI [25] was 1.59 µM, the TGI [26] was 5.54 µM and the TGI [27] was 2.8 µM. For the same compound, the TGI [28] was 14 µM, the TGI [29] was 4.55 µM and the TGI [30] was 14.2 µM. It also gave a TGI [31] of 3.28 µM, a TGI [32] of 3.93 µM and a TGI [33] of 6.04 µM. The TGI [34] was 9.29 µM, the TGI [35] was 2.62 µM and the TGI [36] was 3.96 µM. It also gave a TGI [37] of 4.15 µM, a TGI [38] of 2.76 µM and a TGI [39] of 6.35 µM. It also gave a TGI [40] of 3.77 µM, a TGI [41] of 4.13 µM and a TGI [42] of 8.49 µM. It also gave a TGI [43] of 5.97 µM, a TGI [44] of 5.4 µM and a TGI [45] of 5.2 µM. The TGI [46] was 13.9 µM, the TGI [47] was 2.35 µM and the TGI [48] was 2.86 µM. The TGI [49] was 3.66 µM, the TGI [50] was 2.69 µM and the TGI [51] was 5.17 µM. It also gave a TGI [52] of 4.12 µM, a TGI [53] of 4.53 µM and a TGI [54] of 9.72 µM. The TGI [55] was 5.75 µM, the TGI [56] was 5.9 µM and the TGI [57] was 6.56 µM.
Compound CCN(CC)Cc1cc(Nc2c3ccc(Cl)cc3nc3ccc(OC)cc23)ccc1O has a GI50 [1] of 2.16 µM, a TGI [1] of 3.78 µM and a GI50 [2] of 2.8 µM. The TGI [2] was 6.63 µM, the GI50 [3] was 4.62 µM and the TGI [3] was 16.5 µM. The GI50 [4] was 4.33 µM, the TGI [4] was 18.5 µM and the GI50 [5] was 12.2 µM. For the same compound, the TGI [5] was 33.1 µM, the GI50 [6] was 2.89 µM and the TGI [6] was 10.9 µM. It also gave a GI50 [7] of 3.5 µM, a TGI [7] of 17.1 µM and a GI50 [8] of 3.25 µM. It also gave a TGI [8] of 11.1 µM, a GI50 [9] of 2.36 µM and a TGI [9] of 4.6 µM. For the same compound, the GI50 [10] was 1.73 µM, the TGI [10] was 4.36 µM and the GI50 [11] was 5.61 µM. For the same compound, the TGI [11] was 18.3 µM, the GI50 [12] was 3.66 µM and the TGI [12] was 13.1 µM. For the same compound, the GI50 [14] was 12 µM, the TGI [14] was 34.7 µM and the GI50 [15] was 7.59 µM. For the same compound, the TGI [15] was 22.7 µM, the GI50 [16] was 1.6 µM and the TGI [16] was 4.04 µM. The GI50 [17] was 17.2 µM, the TGI [17] was 31.4 µM and the GI50 [18] was 5.59 µM. The TGI [18] was 21.2 µM, the GI50 [19] was 5.11 µM and the TGI [19] was 21.1 µM. The GI50 [20] was 4.03 µM, the TGI [20] was 14.4 µM and the GI50 [21] was 2.29 µM. The TGI [21] was 6 µM, the GI50 [22] was 6.4 µM and the TGI [22] was 19.3 µM. It also gave a GI50 [23] of 2 µM, a TGI [23] of 3.82 µM and a GI50 [24] of 3.68 µM. For the same compound, the TGI [24] was 12.6 µM, the GI50 [25] was 3.32 µM and the TGI [25] was 8.99 µM. The GI50 [26] was 2.13 µM, the TGI [26] was 4.21 µM and the GI50 [27] was 2.9 µM. It also gave a TGI [27] of 10.3 µM, a GI50 [28] of 7.09 µM and a TGI [28] of 20 µM. The GI50 [29] was 5.76 µM, the TGI [29] was 22 µM and the GI50 [30] was 4.21 µM. For the same compound, the TGI [30] was 15.2 µM, the GI50 [32] was 3.86 µM and the TGI [32] was 55.6 µM. For the same compound, the GI50 [33] was 2.17 µM, the TGI [33] was 3.89 µM and the GI50 [34] was 4.7 µM. It also gave a TGI [34] of 17.8 µM, a GI50 [58] of 11.1 µM and a TGI [58] of 23.4 µM. For the same compound, the GI50 [35] was 2.89 µM, the TGI [35] was 11.7 µM and the GI50 [36] was 4.16 µM. For the same compound, the TGI [36] was 16.1 µM, the GI50 [37] was 6.86 µM and the TGI [37] was 23.3 µM. For the same compound, the GI50 [38] was 3.04 µM, the TGI [38] was 13.2 µM and the GI50 [39] was 5.07 µM. The TGI [39] was 18.9 µM, the GI50 [40] was 1.79 µM and the TGI [40] was 3.34 µM. The GI50 [41] was 2.65 µM, the TGI [41] was 6.39 µM and the GI50 [42] was 2.11 µM. It also gave a TGI [42] of 4.31 µM, a GI50 [44] of 16.5 µM and a TGI [44] of 31 µM. For the same compound, the GI50 [45] was 7.28 µM, the TGI [45] was 21.4 µM and the GI50 [46] was 5.01 µM. For the same compound, the TGI [46] was 18.3 µM, the GI50 [47] was 3.17 µM and the TGI [47] was 14.5 µM. For the same compound, the GI50 [48] was 4.28 µM, the TGI [48] was 15.1 µM and the GI50 [50] was 5.32 µM. For the same compound, the TGI [50] was 25.5 µM, the GI50 [51] was 1.88 µM and the TGI [51] was 3.43 µM. For the same compound, the GI50 [52] was 2.34 µM, the TGI [52] was 6.32 µM and the GI50 [53] was 4.14 µM. For the same compound, the TGI [53] was 12.2 µM, the GI50 [54] was 13.9 µM and the TGI [54] was 27.5 µM. For the same compound, the GI50 [55] was 2.26 µM, the TGI [55] was 5.03 µM and the GI50 [56] was 2.41 µM. The TGI [56] was 7.25 µM, the GI50 [57] was 1.77 µM and the TGI [57] was 3.26 µM.
